Reference: publication PMC12423841 (ACS Omega, 2025)

Experiments:
[1] = test system: VSV pseudotyped with the SARS-CoV-2 Wuhan-Hu-1 S; experiment: organism not typed; assay type: cell-based; settings: for antiviral activity (reduction of viral entry) versus cellular toxicity: VSVΔG-SWh in VeroE6 cells, various concentrations; for EC50: Vero C1008, read-out: EC50 (concentration reducing infection by VSV pseudotyped with the SARS-CoV-2 Wuhan-Hu-1 S by 50%)
[2] = in vitro; settings: African green monkey
[3] = test system: SARS-CoV-2 in A549-ACE2 cells; assay type: cell-based; settings: 24 h, compounds 20 μM, remdesivir 30 μM
[4] = test system: SARS-CoV-2 in VeroE6-TMPRSS2 cells; assay type: cell-based; settings: 24 h, compounds 20 μM, remdesivir 30 μM
[5] = test system: VSV pseudotyped with SARS-CoV-2 Delta Spike; assay type: cell-based; settings: dose response
[6] = test system: VSV pseudotyped with SARS-CoV-2 Omicron BA.1 Spike; assay type: cell-based; settings: dose response
[7] = test system: VSV pseudotyped with SARS-CoV-1 Spike; assay type: cell-based

C=C1CC[C@H](O)C/C1=C/C=C1\CCC[C@]2(C)[C@@H]([C@H](C)CCCC(C)(C)O)CC[C@@H]12 [calcifediol]
antiviral activity (reduction of viral entry) versus cellular toxicity [1]: antiviral activity could not be separated from toxicity
EC50 [1]: 6.13 ± 3.52 µM
CC50 [2]: 16.8 ± 0.5 µM

C=C1CC[C@H](O)C/C1=C/C=C1\CCC[C@]2(C)[C@@H]([C@H](C)CCCC(C)C)CC[C@@H]12 [cholecalciferol]
antiviral activity (reduction of viral entry) versus cellular toxicity [1]: showed antiviral activity in the absence of toxicity
EC50 [1]: 14.8 ± 4.11 µM
CC50 [2]: 83.7 ± 6.12 µM

CC(C)c1c(CN(C)C(C)Cc2ccccc2)n(C)n(-c2ccccc2)c1=O (stereo not shown) [famprofazone]
antiviral activity (reduction of viral entry) versus cellular toxicity [1]: showed antiviral activity in the absence of toxicity
EC50 [1]: 7.64 ± 4.55 µM
virus production after SARS-CoV-2 infection [3]: statistically significant reduction of virus production
CC50 [2]: 79 ± 2.75 µM

CCCCCCCCc1ccc(CCC(N)(CO)CO)cc1 [fingolimod]
antiviral activity (reduction of viral entry) versus cellular toxicity [1]: showed antiviral activity in the absence of toxicity
EC50 [1]: 7.12 ± 2.25 µM
inhibition of infection by VSV pseudotyped with SARS-CoV-2 Wuhan Spike ([1]; dose response): dose-dependent reduction
virus production after SARS-CoV-2 infection [3]: statistically significant reduction of virus production
virus production after SARS-CoV-2 infection [4]: significant reduction
inhibition of infection by VSV pseudotyped with SARS-CoV-2 Delta Spike [5]: dose-dependent reduction
inhibition of infection by VSV pseudotyped with SARS-CoV-2 Omicron BA.1 Spike [6]: dose-dependent reduction
inhibition of infection by VSV pseudotyped with SARS-CoV-1 Spike [7]: dose-dependent reduction
CC50 [2]: 20.4 ± 19.6 µM

CC[N+](C)(CC)CCOC(=O)C(O)(c1ccccc1)C1CCCCC1 (stereo not shown) [oxyphenomium]
antiviral activity (reduction of viral entry) versus cellular toxicity [1]: could not be observed

CCC(CC)COC(=O)[C@H](C)N[P@](=O)(OC[C@H]1O[C@@](C#N)(c2ccc3c(N)ncnn23)[C@H](O)[C@@H]1O)Oc1ccccc1 [remdesivir]
virus production after SARS-CoV-2 infection [3]: reduced viral replication significantly
virus production after SARS-CoV-2 infection [4]: reduced viral replication significantly
